Target: T1, rHPLOE (recombinant hemolymph plasma lectin)
T1 construct: gene hpl; E. coli codon-optimised synthetic gene hplOE in pET-23a(+), BL21(DE3) with chaperones (pG-KJE8); His-tag kept; HisTrap purified
Experiment: competitive ELISA against coated PA14 biofilm extract
Design: species or system Tachypleus tridentatus
Conditions: 0.1 uM rHPLOE; 37 °C, 1 h; competitor of binding to cell-free P. aeruginosa PA14 biofilm; one-site Ki fit
Excerpt: competitive ELISA against coated PA14 biofilm extract on rHPLOE (recombinant hemolymph plasma lectin) | The inhibitory constant (Ki) of L-rhamnose to rHPLOE interaction with the biofilm

C[C@@H]1OC(O)[C@H](O)[C@H](O)[C@H]1O (stereo partly drawn) [L-rhamnose]
Ki: 98 mM

Reference: article PMC6628293, “Rhamnose Binding Protein as an Anti-Bacterial Agent—Targeting Biofilm of Pseudomonas aeruginosa” (Marine Drugs, 2019)
